{"source": "ChEMBL document CHEMBL5543137", "about": "“Design and Synthesis of Novel Ultralong-Acting Peptides as EDP-EBP Interaction Inhibitors for Pulmonary Fibrosis Treatment” (J Med Chem, 2024)", "key": {"Mus musculus [1]": {"system": "Mus musculus", "test": "Antifibrotic activity against BLM-induced C57BL/6 mouse pulmonary fibrosis model assessed as reduction in ECM deposition in lungs at 30 to 240 ug/kg, sc administered for 2 weeks starting from 7 days post BLM induction and measured after 21 days post BLM induction", "format": "functional, organism-based", "settings": "dose 30-240 µg/kg"}, "Mus musculus [2]": {"system": "Mus musculus", "test": "Antifibrotic activity against BLM-induced C57BL/6 mouse pulmonary fibrosis model assessed as reduction in Col1a1 gene expression at 240 ug/kg/day, sc administered for 2 weeks starting from 7 days post BLM induction and measured after 21 days post BLM induction by ScRNA-sequencing analysis", "format": "functional, organism-based", "settings": "dose 240.0 µg/kg/day"}, "[3]": {"test": "Half life in cynomolgus monkey at 0.06 mg/kg, sc administered as single dose measured upto 30 days by LC-MS/MS method", "format": "ADME, organism-based, Macaca fascicularis", "settings": "in vivo, time < 30 day"}, "RAW264.7": {"system": "RAW264.7", "test": "Antifibrotic activity against BLM-induced mouse RAW264.7 cells assessed as upregulation of MMP-12 mRNA expression at 10 uM incubated for 6 to 24 hrs by RT-qPCR analysis", "format": "functional, cell-based", "settings": "time 6-24 hrs"}, "Mus musculus [4]": {"system": "Mus musculus", "test": "Antifibrotic activity against BLM-induced C57BL/6 mouse pulmonary fibrosis model assessed as reduction in Col3a1 gene expression at 240 ug/kg/day, sc administered for 2 weeks starting from 7 days post BLM induction and measured after 21 days post BLM induction by ScRNA-sequencing analysis", "format": "functional, organism-based", "settings": "dose 240.0 µg/kg/day"}, "A549": {"system": "A549", "test": "Antifibrotic activity against TNFalpha-induced human A549 cells assessed as downregulation of Fn gene expression level at 10 uM incubated for 24 hrs by RT-qPCR analysis", "format": "functional, cell-based"}, "Mus musculus [5]": {"system": "Mus musculus", "test": "Antifibrotic activity against BLM-induced C57BL/6 mouse pulmonary fibrosis model assessed as reduction in vimentin gene expression at 240 ug/kg/day, sc administered for 2 weeks starting from 7 days post BLM induction and measured after 21 days post BLM induction by ScRNA-sequencing analysis", "format": "functional, organism-based", "settings": "dose 240.0 µg/kg/day"}, "TC-1": {"system": "TC-1", "test": "Antifibrotic activity against BLM-induced mouse TC-1 cells assessed as reduction in FN expression at 10 uM after 24 hrs by Western blotting analysis", "format": "functional, cell-based"}}, "note": "Active and inactive are the calls of the source. No cut-off for these calls is given here. Starred links: 1 amine or outer side, 2 acyl side, 3 side chain; linkers in the order of their positions; H or OH if unused. Non-standard residues stand in square brackets, D forms with d. Residues, ends and D or L forms follow the SMILES beside them. *: point of attachment. C20 diacid = O=C(O)CCCCCCCCCCCCCCCCCCC(=O)*; γGlu = O=C(O)[C@H](CCC(=O)[*:2])N[*:1]; Iva = CC[C@](C)(N)C(=O)O; PEG2 = NCCOCCOCCC(=O)O"}
{"smiles": "CC[C@](C)(NC(=O)[C@@H](NC(=O)CCOCCOCCNC(=O)CCOCCOCCNC(=O)CC[C@H](NC(=O)CCCCCCCCCCCCCCCCCCC(=O)O)C(=O)O)C(C)C)C(=O)NCC(=O)N[C@@H](CO)C(=O)N1CCC[C@H]1C(=O)N[C@@H](CO)C(=O)N[C@@H](C)C(=O)N[C@@H](CCC(N)=O)C(=O)N[C@@H](CCC(=O)O)C(=O)N[C@@H](CCC(=O)O)C(=O)N[C@@H](C)C(=O)N[C@@H](CO)C(=O)N1CCC[C@H]1C(=O)N[C@@H](C)C(N)=O", "note": "({C20 diacid-γGlu-PEG2-PEG2}-V[Iva]GSPSAQEEASPA-NH2)", "values": [{"measurement": "Activity", "setting": "Mus musculus [1]", "value": "Active"}, {"measurement": "Activity", "setting": "Mus musculus [2]", "value": "Active"}, {"measurement": "half-life", "setting": "[3]", "value": 10.7, "unit": "days"}, {"measurement": "Activity", "setting": "RAW264.7", "value": "Active"}, {"measurement": "Activity", "setting": "Mus musculus [4]", "value": "Active"}, {"measurement": "Activity", "setting": "A549", "value": "Active"}, {"measurement": "Activity", "setting": "Mus musculus [5]", "value": "Active"}, {"measurement": "Activity", "setting": "TC-1", "value": "Active"}]}
